Read-outs that look alike come from different tables or passages of the source.
Tests used:
Assay type in all cases: in vivo, human
[1] = Double-blind, placebo controlled, ascending single dose pharmacokinetic study of oral DPC 333 in healthy subjects; settings: for half-life / Cmax / Tmax / AUC / AUC(0-inf) / concentration at 12 h: both sexes, human, plasma; for AUC: read-out: mean AUC from time zero to time infinity, range; for concentration at 12 h: read-out: C12 (plasma concentration at 12 hours) Mean
Experimental: (§1) The safety, tolerability, and pharmacokinetics of an oral dose form of DPC 333 were evaluated in a double-blind, placebo controlled, ascending single dose study in healthy male and female human subjects. Subjects in each cohort were randomized to receive either a single dose of DPC 333 (n=6) or placebo (n=2). Doses examined were 15, 25, 40, 80, 120, 225, 345, and 530 mg. Safety measurements included monitoring of AEs, standard clinical laboratory tests, ECGs, and vital sign measurements.
(§2) Blood samples were obtained pre-dose (0 hour) and 0.25, 0.5, 1, 1.5, 2, 2.5, 3, 4, 6, 8, 12, 18, 24, 36 and 48 hours post-dose administration. DPC 333 was quantified plasma extracts from these blood samples by a solid phase method followed by turbo ion spray liquid chromatography employing tandem mass spectroscopic detection (LC/MS/MS). The validated assay range for DPC 333 using 0.2 mL of plasma was 1.05 to 2098 nM. The assay was specific for DPC 333.
(§3) The following pharmacokinetic parameters for DPC 333 were assessed following a single dose administration of the DPC 333 oral dosage form to a subject: Cmax, Tmax, AUC, T1/2, Clo, and C12. Cmax is defined as the observed maximum plasma concentration. Tmax is defined as the time of observed maximum plasma concentration. AUC is defined as the area under the plasma concentration-time curve from time zero to time infinity; T1/2 is defined as the terminal disposition half-life.

[2] = Effect of food on pharmacokinetics of oral DPC 333, two period crossover study (fasted vs high-fat breakfast); settings: for AUC(0-inf) / AUC(0-t) / Cmax: male, po, n = 6, mean ± SD
Experimental: as §2, §3
The effect of food on the safety, tolerability and pharmacokinetics of this oral dose form of DPC 333 was also examined in a randomized, open label, two period balanced crossover study in one cohort of male subjects. Each subject received a single oral 225 mg dose of DPC 333 on two occasions administered at least one week apart. On one occasion the dose was given in the fasted state and on the other occasion the dose was administered after a standard, high-fat breakfast meal. The following table provides pharmacokinetic data from this study.

[3] = Comparison of DPC 333 pharmacokinetics by gender in fasted subjects; settings: for half-life / AUC(0-inf) / Cmax / Tmax: human, plasma, oral, 225 mg; for half-life: harmonic mean ± pseudo-standard deviation; for AUC(0-inf) / Cmax: mean ± SD; for Tmax: read-out: Tmax (median)
Experimental: as §2, §3
Differences in pharmacokinetics of DPC 333 based upon gender were also examined. The following table provides a comparison of DPC 333 pharmacokinetics by gender in fasted subjects receiving a single dose of 225 mg of DPC 333.

[4] = Safety and tolerability of single oral doses of DPC 333 (AEs, clinical laboratory tests, ECGs, vital signs)
Experimental: as §1

[5] = Double-blind, placebo controlled, ascending single dose pharmacokinetic study of oral DPC 333 in healthy subjects; settings: single oral dose 80 mg, healthy volunteers, n = 12
[6] = single oral dose 15 mg, healthy volunteers, n = 6
[7] = single oral dose 25 mg, healthy volunteers, n = 6
[8] = single oral dose 40 mg, healthy volunteers, n = 6
[9] = single oral dose 80 mg, healthy volunteers, n = 12
[10] = single oral dose 120 mg, healthy volunteers, n = 6
[11] = single oral dose 225 mg, healthy volunteers, n = 6
[12] = single oral dose 345 mg, healthy volunteers, n = 6
[13] = single oral dose 530 mg, healthy volunteers, n = 6
[14] = administered with food compared to fasted state, 225 mg
[15] = fed/fasted, fasted treatment as the reference, 225 mg
[16] = human, plasma, 225 mg, Fasted, 225 mg single oral dose, male subjects
[17] = human, plasma, 225 mg, Fed (high-fat breakfast), 225 mg single oral dose, male subjects
[18] = female, Females (n = 6), Part 1: 225 mg (fasted)
[19] = male, Males (n = 6), Part 1: 225 mg (fasted)
[20] = male, Males (n = 6), Part 2: 225 mg (fasted)

## Cc1cc(COc2ccc([C@]3(N)CCN([C@H](CC(C)C)C(=O)NO)C3=O)cc2)c2ccccc2n1 [DPC 333, [1-(R)]-3-amino-N-hydroxy-alpha-(2-methylpropyl)-3-[4-[(2-methyl-4-quinolinyl)methoxy]phenyl]-2-oxo-1-pyrrolidineacetamide]
[1]; at a single dose greater than 225 mg
  increase in mean AUC (time zero to time infinity) with dose: greater than proportional increase
[1]; at the 345 mg and 530 mg doses
  increase in exposure (AUC) with dose: greater-than-proportional increase
[1]; oral, for the higher doses, read-out: mean half-life estimates (converted)
  half-life: ~6 h
[1]; oral, single dose administrations ranging from 15 mg to 530 mg, read-out: mean terminal disposition half-life (T1/2)
  half-life: 2 to 7 h
[1]; oral, single dose of 15 mg, read-out: mean maximum plasma concentration (Cmax), range
  Cmax: 0.088 to 0.18 µM
[1]; oral, single dose of 15 mg, read-out: mean time of maximum plasma concentration (Tmax), range
  Tmax: 0.5 to 1 h
[1]; oral, single dose of 25 mg
  AUC: 0.45 to 0.9 µM·h
[1]; oral, single dose of 25 mg, read-out: mean maximum plasma concentration (Cmax), range
  Cmax: 0.17 to 0.435 µM
[1]; oral, single dose of 25 mg, read-out: mean time of maximum plasma concentration (Tmax), range
  Tmax: 0.5 to 1 h
[1]; oral, single dose of 40 mg
  AUC: 0.93 to 1.43 µM·h
[1]; oral, single dose of 40 mg, read-out: mean time of maximum plasma concentration (Tmax), range
  Tmax: 0.25 to 1 h
[1]; oral, single dose of 40 mg, upper limit in μM, read-out: mean maximum plasma concentration (Cmax), range
  Cmax: 0.355 to 0.655 µM
[1]; oral, single dose of 80 mg
  AUC: 2.25 to 4.16 µM·h
[1]; oral, single dose of 80 mg, read-out: mean time of maximum plasma concentration (Tmax), range
  Tmax: 0.5 to 1 h
[1]; oral, single dose of 80 mg, upper limit in μM, read-out: mean maximum plasma concentration (Cmax), range
  Cmax: 0.965 to 1.87 µM
[1]; oral, single dose of 120 mg
  AUC: 3.33 to 6.21 µM·h
[1]; oral, single dose of 120 mg, read-out: mean maximum plasma concentration (Cmax), range
  Cmax: 1.54 to 2.35 µM
[1]; oral, single dose of 120 mg, read-out: mean time of maximum plasma concentration (Tmax), range
  Tmax: 0.5 to 1 h
[1]; oral, single dose of 225 mg
  AUC: 6.38 to 9.4 µM·h
[1]; oral, single dose of 225 mg, read-out: mean time of maximum plasma concentration (Tmax), range
  Tmax: 0.5 to 1 h
[1]; oral, single dose of 225 mg, upper limit in μM, read-out: mean maximum plasma concentration (Cmax), range
  Cmax: 2.62 to 3.65 µM
[1]; oral, single dose of 345 mg
  AUC: 18.4 to 28.8 µM·h
[1]; oral, single dose of 345 mg, read-out: mean maximum plasma concentration (Cmax), range
  Cmax: 6.58 to 15.4 µM
[1]; oral, single dose of 345 mg, read-out: mean time of maximum plasma concentration (Tmax), range
  Tmax: 0.25 to 1 h
[1]; oral, single dose of 530 mg
  AUC: 22 to 39.5 µM·h
[1]; oral, single dose of 530 mg, read-out: mean maximum plasma concentration (Cmax), range
  Cmax: 9.45 to 18.1 µM
[1]; oral, single dose of 530 mg, read-out: mean time of maximum plasma concentration (Tmax), range
  Tmax: 0.5 to 1 h
[1]; po, 15 mg, single oral dose 15 mg, healthy volunteers, n = 6, read-out: T½ Mean (harmonic mean) (converted)
  half-life: 2.18 h
[1]; po, 25 mg, single oral dose 25 mg, healthy volunteers, n = 6, read-out: T½ Mean (harmonic mean) (converted)
  half-life: 2.86 h
[1]; po, 40 mg, single oral dose 40 mg, healthy volunteers, n = 6, read-out: T½ Mean (harmonic mean) (converted)
  half-life: 3.41 h
[1]; po, 80 mg, single oral dose 80 mg, healthy volunteers, n = 12, read-out: T½ Mean (harmonic mean) (converted)
  half-life: 4.05 h
[1]; po, 120 mg, single oral dose 120 mg, healthy volunteers, n = 6, read-out: T½ Mean (harmonic mean) (converted)
  half-life: 4.89 h
[1]; po, 225 mg, single oral dose 225 mg, healthy volunteers, n = 6, read-out: T½ Mean (harmonic mean) (converted)
  half-life: 5.53 h
[1]; po, 345 mg, single oral dose 345 mg, healthy volunteers, n = 6, read-out: T½ Mean (harmonic mean) (converted)
  half-life: 6.39 h
[1]; po, 530 mg, single oral dose 530 mg, healthy volunteers, n = 6, read-out: T½ Mean (harmonic mean) (converted)
  half-life: 6.04 h
[1]; oral administration, post dose, doses 15 to 530 mg, read-out: Tmax values
  Tmax: < 1 h
[1]; [6]
  AUC(0-inf): 0.342 µM·h
  concentration at 12 h: 2.09 nM
  CLo (apparent oral clearance) Mean: 98.0 L/h
[1]; single oral dose 15 mg, healthy volunteers, n = 6, read-out: Cmax Mean
  Cmax: 0.134 µM
[1]; single oral dose 15 mg, healthy volunteers, n = 6, read-out: Tmax Median
  Tmax: 0.75 h
[1]; [7]
  AUC(0-inf): 0.676 µM·h
  concentration at 12 h: 4.41 nM
  CLo (apparent oral clearance) Mean: 85.7 L/h
[1]; single oral dose 25 mg, healthy volunteers, n = 6, read-out: Cmax Mean
  Cmax: 0.303 µM
[1]; single oral dose 25 mg, healthy volunteers, n = 6, read-out: Tmax Median
  Tmax: 0.5 h
[1]; [8]
  AUC(0-inf): 1.18 µM·h
  concentration at 12 h: 6.36 nM
  CLo (apparent oral clearance) Mean: 74.5 L/h
[1]; single oral dose 40 mg, healthy volunteers, n = 6, read-out: Cmax Mean
  Cmax: 0.505 µM
[1]; single oral dose 40 mg, healthy volunteers, n = 6, read-out: Tmax Median
  Tmax: 0.5 h
[1]; [9]
  AUC(0-inf): 3.2 µM·h
  concentration at 12 h: 20.4 nM
[1]; single oral dose 80 mg, healthy volunteers, n = 12, read-out: Cmax Mean
  Cmax: 1.42 µM
[1]; single oral dose 80 mg, healthy volunteers, n = 12, read-out: Tmax Median
  Tmax: 0.5 h
[1]; [10]
  AUC(0-inf): 4.77 µM·h
  concentration at 12 h: 30.3 nM
  CLo (apparent oral clearance) Mean: 56.0 L/h
[1]; single oral dose 120 mg, healthy volunteers, n = 6, read-out: Cmax Mean
  Cmax: 1.94 µM
[1]; single oral dose 120 mg, healthy volunteers, n = 6, read-out: Tmax Median
  Tmax: 0.5 h
[1]; [11]
  AUC(0-inf): 7.89 µM·h
  concentration at 12 h: 49 nM
  CLo (apparent oral clearance) Mean: 61.6 L/h
[1]; single oral dose 225 mg, healthy volunteers, n = 6, read-out: Cmax Mean
  Cmax: 3.14 µM
[1]; single oral dose 225 mg, healthy volunteers, n = 6, read-out: Tmax Median
  Tmax: 0.75 h
[1]; [12]
  AUC(0-inf): 23.6 µM·h
  concentration at 12 h: 153 nM
  CLo (apparent oral clearance) Mean: 32.0 L/h
[1]; single oral dose 345 mg, healthy volunteers, n = 6, read-out: Cmax Mean
  Cmax: 11 µM
[1]; single oral dose 345 mg, healthy volunteers, n = 6, read-out: Tmax Median
  Tmax: 0.75 h
[1]; [13]
  AUC(0-inf): 30.8 µM·h
  concentration at 12 h: 167 nM
  CLo (apparent oral clearance) Mean: 38.6 L/h
[1]; single oral dose 530 mg, healthy volunteers, n = 6, read-out: Cmax Mean
  Cmax: 13.8 µM
[1]; single oral dose 530 mg, healthy volunteers, n = 6, read-out: Tmax Median
  Tmax: 0.5 h
[1]; upon oral administration
  oral absorption: rapidly and well absorbed
[2]; [14]
  decrease in AUC with food: about 23%
  decrease in Cmax with food: about 40%
[2]; [15]
  AUC (0-t) Geometric Mean Ratio: 0.767
  AUC (0-∞) Geometric Mean Ratio: 0.767
  Cmax Geometric Mean Ratio: 0.597
[2]; human, plasma, Fasted, 225 mg single oral dose, male subjects, n = 6, read-out: Tmax (median)
  Tmax: 0.5 h
[2]; [16]
  AUC(0-inf): 12.5 ± 2.79 µM·h
  AUC(0-t): 12.4 ± 2.79 µM·h
  Cmax: 5700 ± 1420 nM
[2]; [17]
  AUC(0-inf): 9.49 ± 1.71 µM·h
  AUC(0-t): 9.48 ± 1.71 µM·h
  Cmax: 3410 ± 832 nM
[3]; fasted subjects, single dose of 225 mg
  differences in pharmacokinetics due to gender: No apparent differences
[3]; [18]
  half-life: 5.93 ± 0.66 h
  AUC(0-inf): 11.4 ± 2.17 µM·h
  Cmax: 6650 ± 1750 nM
  Tmax: 0.51 h
[3]; [19]
  half-life: 5.53 ± 0.88 h
  AUC(0-inf): 7.89 ± 1.51 µM·h
  Cmax: 3140 ± 511 nM
  Tmax: 0.75 h
[3]; [20]
  half-life: 6.19 ± 1.21 h
  AUC(0-inf): 12.5 ± 2.79 µM·h
  Cmax: 5700 ± 1420 nM
  Tmax: 0.5 h
[4]; all safety parameters measured, doses 15 to 530 mg
  dose-related trends in safety parameters: no dose-related mean trends observed
[4]; doses 15 to 530 mg
  discontinuations because of an AE / serious AEs: no discontinuations because of an AE nor any serious AEs reported
[4]; doses evaluated, 15 to 530 mg
  criteria for an intolerable dose: criteria for an intolerable dose were not achieved
[4]; oral dose form, healthy volunteers
  tolerability: well tolerates
[5]
  CLo (apparent oral clearance) Mean: 57.3 L/h

From patent US20030232079A1, “DPC 333 formulation having unique biopharmaceutical characteristics” (priority 2002, published 2003)
